The source of these data is ChEMBL document CHEMBL1144945, “Development of progesterone receptor antagonists from 1,2-dihydrochromeno[3,4-f]quinoline agonist pharmacophore” (Bioorg Med Chem Lett, 2003).

Assay [1] has as its target T1, Glucocorticoid receptor (Homo sapiens, UniProt P04150).
T1 sequence (P04150 whole entry): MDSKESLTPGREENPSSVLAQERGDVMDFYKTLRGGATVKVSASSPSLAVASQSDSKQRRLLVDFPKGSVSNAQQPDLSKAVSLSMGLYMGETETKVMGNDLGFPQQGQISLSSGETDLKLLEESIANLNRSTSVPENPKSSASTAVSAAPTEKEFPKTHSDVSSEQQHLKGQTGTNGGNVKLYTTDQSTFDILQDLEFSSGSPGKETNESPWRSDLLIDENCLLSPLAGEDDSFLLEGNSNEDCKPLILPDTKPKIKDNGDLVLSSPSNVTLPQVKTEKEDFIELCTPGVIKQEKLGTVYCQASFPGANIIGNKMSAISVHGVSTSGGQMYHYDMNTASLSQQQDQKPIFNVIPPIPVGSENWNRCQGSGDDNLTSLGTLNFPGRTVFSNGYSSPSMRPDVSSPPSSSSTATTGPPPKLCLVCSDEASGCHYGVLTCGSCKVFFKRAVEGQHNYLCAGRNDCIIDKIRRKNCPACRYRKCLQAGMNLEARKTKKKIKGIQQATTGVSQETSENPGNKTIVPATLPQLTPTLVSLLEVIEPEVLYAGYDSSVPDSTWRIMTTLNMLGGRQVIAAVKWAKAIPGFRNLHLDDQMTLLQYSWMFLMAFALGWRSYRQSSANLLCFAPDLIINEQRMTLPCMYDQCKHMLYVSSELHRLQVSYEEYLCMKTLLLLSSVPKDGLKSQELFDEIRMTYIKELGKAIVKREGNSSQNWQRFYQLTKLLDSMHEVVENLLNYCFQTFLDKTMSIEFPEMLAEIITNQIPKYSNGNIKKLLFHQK
The assay is described as follows: Inhibition of antagonist activity towards glucocorticoid receptor. Format: functional.

Assay [2] deals with T2, Androgen receptor (Homo sapiens, UniProt P10275).
T2 sequence (P10275 whole entry): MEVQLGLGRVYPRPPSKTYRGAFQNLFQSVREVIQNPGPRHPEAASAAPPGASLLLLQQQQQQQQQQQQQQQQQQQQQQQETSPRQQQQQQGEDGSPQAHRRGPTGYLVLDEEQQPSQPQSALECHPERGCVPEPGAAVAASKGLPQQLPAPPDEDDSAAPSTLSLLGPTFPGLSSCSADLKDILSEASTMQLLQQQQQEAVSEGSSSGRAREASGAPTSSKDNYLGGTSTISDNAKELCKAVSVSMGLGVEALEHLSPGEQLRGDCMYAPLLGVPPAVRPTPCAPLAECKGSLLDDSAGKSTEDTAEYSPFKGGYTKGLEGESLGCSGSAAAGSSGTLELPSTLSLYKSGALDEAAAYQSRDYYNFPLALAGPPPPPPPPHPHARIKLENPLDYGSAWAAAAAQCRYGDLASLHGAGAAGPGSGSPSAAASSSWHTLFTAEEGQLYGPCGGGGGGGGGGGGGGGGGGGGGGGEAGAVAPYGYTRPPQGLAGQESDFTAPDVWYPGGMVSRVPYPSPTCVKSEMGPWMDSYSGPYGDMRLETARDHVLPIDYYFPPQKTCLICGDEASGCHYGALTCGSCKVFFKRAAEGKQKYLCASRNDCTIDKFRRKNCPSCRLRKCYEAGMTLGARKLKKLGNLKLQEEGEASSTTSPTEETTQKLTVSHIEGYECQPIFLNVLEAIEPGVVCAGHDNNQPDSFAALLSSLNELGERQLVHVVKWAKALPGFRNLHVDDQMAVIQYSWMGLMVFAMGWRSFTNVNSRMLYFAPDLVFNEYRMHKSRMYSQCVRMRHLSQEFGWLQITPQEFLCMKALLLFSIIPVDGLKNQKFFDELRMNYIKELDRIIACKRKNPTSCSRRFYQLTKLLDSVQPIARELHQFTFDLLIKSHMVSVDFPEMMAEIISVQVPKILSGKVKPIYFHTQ
Description: Inhibition of antagonist activity towards Androgen receptor

Assay [3] deals with T3, Androgen receptor (Homo sapiens) (UniProt P10275).
T3 sequence (whole entry): T2 sequence (P10275 whole entry)
The assay is described as follows: Antagonist efficacy for human sndrogen receptor. The class given is functional.

For assay [4], the target named is T2, Androgen receptor. The assay is described as follows: Inhibition of antagonist activity towards human Androgen receptor. Format: functional.
Assay [5] concerns the target T4, Glucocorticoid receptor (Homo sapiens) (UniProt P04150).
T4 sequence (whole entry): T1 sequence (P04150 whole entry)
The experiment in a line: Antagonist efficiency for glucocorticoid (hGR) receptor. The class given is functional.

Assay [6] has as its target T1, Glucocorticoid receptor. The assay is described as follows: Inhibition of antagonist activity towards glucocorticoid (hGR) receptor. Format: functional.
The target in assay [7] is Estrogen receptor (Homo sapiens) (UniProt Q92731+P03372). The assay is described as follows: Antagonist efficacy for estrogen (hER) receptor; Not active. The class given is functional.
For assay [8], the target named is T5, Progesterone receptor (Homo sapiens, UniProt P06401).
T5 sequence (P06401 whole entry): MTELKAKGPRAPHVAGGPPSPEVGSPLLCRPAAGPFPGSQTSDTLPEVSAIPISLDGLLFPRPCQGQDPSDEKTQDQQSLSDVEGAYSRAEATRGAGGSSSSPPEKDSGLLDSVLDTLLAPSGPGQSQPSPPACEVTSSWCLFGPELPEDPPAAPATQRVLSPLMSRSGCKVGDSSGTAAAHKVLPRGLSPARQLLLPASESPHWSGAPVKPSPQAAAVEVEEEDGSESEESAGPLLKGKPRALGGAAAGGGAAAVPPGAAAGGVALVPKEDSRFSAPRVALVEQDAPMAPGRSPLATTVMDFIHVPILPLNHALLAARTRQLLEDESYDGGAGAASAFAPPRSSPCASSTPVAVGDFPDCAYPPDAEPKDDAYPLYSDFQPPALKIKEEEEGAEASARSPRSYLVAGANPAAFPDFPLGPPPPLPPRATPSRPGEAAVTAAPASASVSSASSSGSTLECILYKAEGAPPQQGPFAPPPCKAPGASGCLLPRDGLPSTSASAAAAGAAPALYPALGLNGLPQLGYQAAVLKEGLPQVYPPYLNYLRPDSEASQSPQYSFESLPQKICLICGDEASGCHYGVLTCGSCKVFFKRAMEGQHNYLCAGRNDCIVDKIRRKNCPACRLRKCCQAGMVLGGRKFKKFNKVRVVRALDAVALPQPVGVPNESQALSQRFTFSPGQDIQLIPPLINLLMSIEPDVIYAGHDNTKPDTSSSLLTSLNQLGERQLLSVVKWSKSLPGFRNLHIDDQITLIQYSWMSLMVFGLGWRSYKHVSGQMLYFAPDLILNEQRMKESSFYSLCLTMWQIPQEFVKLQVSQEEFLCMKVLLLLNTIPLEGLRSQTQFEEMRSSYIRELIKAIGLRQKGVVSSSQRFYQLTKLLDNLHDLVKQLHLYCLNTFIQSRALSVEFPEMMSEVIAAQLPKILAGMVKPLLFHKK
The experiment in a line: Effective concentration for antagonistic activity towards human progesterone in CV-1 cells. The class given is functional, cell-based.

Assay [9] concerns the target T6, Progesterone receptor (Homo sapiens) (UniProt P06401).
T6 sequence (whole entry): T5 sequence (P06401 whole entry)
The assay is described as follows: Antagonist efficacy for human progesterone in CV-1 cells. The class given is functional, cell-based.

Assay [10] has as its target T5, Progesterone receptor. The experiment in a line: Binding towards human progesterone receptor.
Assay [11] deals with T1, Glucocorticoid receptor. The experiment in a line: Inhibition of antagonist activity towards glucocorticoid receptor; not active. The class given is functional.
Assay [12] has as its target T4, Glucocorticoid receptor (Homo sapiens). The assay is described as follows: Antagonist efficacy for glucocorticoid (hGR) receptor. The class given is functional.
For assay [13], the target named is T6, Progesterone receptor (Homo sapiens). The assay is described as follows: Agonist efficacy for human progesterone in T47D human breast cancer cell. The class given is functional, cell-based.
The target of assay [14] is T5, Progesterone receptor. The experiment in a line: Inhibition of human progesterone in T47D human breast cancer cell. The class given is cell-based.

The structures appear in SMILES notation. Calls of active or inactive are those of the source. No cut-off for these calls is given here.

Broadly, the IC50 is the concentration that inhibits the measured activity by half. For the molecule `CC1=CC(C)(C)Nc2ccc3c(c21)COc1c(F)cc(Br)cc1-3`, the IC50 in assay [1] turned out to be 2170 nM; in [2], 90 nM.
Usually EC50 stands for the concentration that produces a half-maximal response. Read a high EC50 as a less potent agent. Broadly, the Ki is the dissociation constant of the complex between target and ligand, obtained from inhibition or displacement. As to `CC1=CC(C)(C)Nc2ccc3c(c21)COc1c(F)cc(Cl)cc1-3`, the Efficacy in assay [3] amounted to 79%; in [5], 95%; in assay [9], 74%. For the same molecule, the IC50 in [4] amounted to 428 nM; in [6], 753 nM. In addition, the Efficacy entry in [7] was “inactive”. Also, the EC50 in assay [8] amounted to 13.5 nM. This molecule also gave a Ki in [10] of 5.6 nM.
As to `CC1CC(C)(C)Nc2ccc3c(c21)COc1ccc([N+](=O)[O-])cc1-3` (stereo not drawn), the IC50 was determined as 1870 nM in [1] and 63 nM in assay [2].
`CC1CC(C)(C)Nc2ccc3c(c21)COc1c(F)cc(F)cc1-3` (stereo not drawn): the IC50 entry in [11] is recorded as “Not Active”.
Consider `CC1=CC(C)(C)Nc2ccc3c(c21)COc1c(F)cc(F)cc1-3`, for which the Efficacy is 87% in assay [3], 57% in [12], 42% in [13] and 83% in assay [9]. Also, the IC50 in assay [4] is 644 nM; in assay [6], 3030 nM; in [14], 86 nM. For the same molecule, in assay [7], the Efficacy result is “inactive”. Moreover, the EC50 in assay [8] was determined as 25.4 nM. The same molecule came in with a Ki in [10] of 13.5 nM.
